# Experimental data published in ChEMBL document CHEMBL1649133, “In vitro comparison of the efficacies of natamycin and silver nitrate against ocular fungi” (2009).
# Assays:
# Assay type in all cases: functional
# [1] = tested on: Fusarium solani; assay: Antifungal activity against 0.4x10'4 to 5x10^4 CFU/ml Fusarium solani after 48 hrs by CLSI M38-A broth microdilution method
# [2] = tested on: Aspergillus flavus; assay: Antifungal activity against 0.4x10'4 to 5x10^4 CFU/ml Aspergillus flavus after 48 hrs by CLSI M38-A broth microdilution method
# [3] = tested on: Fusarium poae; assay: Antifungal activity against 0.4x10'4 to 5x10^4 CFU/ml Fusarium poae after 48 hrs by CLSI M38-A broth microdilution method
# [4] = tested on: Fusarium verticillioides; assay: Antifungal activity against 0.4x10'4 to 5x10^4 CFU/ml Fusarium moniliforme after 48 hrs by CLSI M38-A broth microdilution method
# [5] = tested on: Aspergillus versicolor; assay: Antifungal activity against 0.4x10'4 to 5x10^4 CFU/ml Aspergillus versicolor after 48 hrs by CLSI M38-A broth microdilution method
# [6] = tested on: Fusarium sp.; assay: Antifungal activity against 0.4x10'4 to 5x10^4 CFU/ml Fusarium sp. after 48 hrs by CLSI M38-A broth microdilution method
# [7] = tested on: Aspergillus niger; assay: Antifungal activity against 0.4x10'4 to 5x10^4 CFU/ml Aspergillus niger after 48 hrs by CLSI M38-A broth microdilution method
# [8] = tested on: Aspergillus fumigatus; assay: Antifungal activity against 0.4x10'4 to 5x10^4 CFU/ml Aspergillus fumigatus after 48 hrs by CLSI M38-A broth microdilution method
# [9] = tested on: Aspergillus oryzae; assay: Antifungal activity against 0.4x10'4 to 5x10^4 CFU/ml Aspergillus oryzae after 48 hrs by CLSI M38-A broth microdilution method
# [10] = tested on: Fusarium oxysporum; assay: Antifungal activity against 0.4x10'4 to 5x10^4 CFU/ml Fusarium oxysporum after 48 hrs by CLSI M38-A broth microdilution method
# [11] = tested on: Fusarium avenaceum; assay: Antifungal activity against 0.4x10'4 to 5x10^4 CFU/ml Fusarium avenaceum after 48 hrs by CLSI M38-A broth microdilution method
# [12] = tested on: Aspergillus sp.; assay: Antifungal activity against 0.4x10'4 to 5x10^4 CFU/ml Aspergillus sp. after 48 hrs by CLSI M38-A broth microdilution method
compound,measurement,setting,value
C[C@@H]1C/C=C/C=C/C=C/C=C/[C@H](O[C@@H]2O[C@H](C)[C@@H](O)[C@H](N)[C@@H]2O)C[C@@H]2O[C@](O)(C[C@@H](O)C[C@H]3O[C@@H]3/C=C/C(=O)O1)C[C@H](O)[C@H]2C(=O)O [NATAMYCIN],MIC,[1],4 µg/mL
same,MIC50,[1],4 µg/mL
same,MIC90,[1],8 µg/mL
same,MIC50,[2],32 µg/mL
same,MIC90,[2],32 µg/mL
same,MIC,[3],4 µg/mL
same,MIC,[4],4 µg/mL
same,MIC50,[4],4 µg/mL
same,MIC90,[4],8 µg/mL
same,MIC50,[5],8 µg/mL
same,MIC90,[5],32 µg/mL
same,MIC,[6],4 µg/mL
same,MIC50,[6],4 µg/mL
same,MIC90,[6],8 µg/mL
same,MIC,[7],0.25 µg/mL
same,MIC,[8],4 µg/mL
same,MIC50,[8],4 µg/mL
same,MIC90,[8],4 µg/mL
same,MIC50,[9],32 µg/mL
same,MIC90,[9],32 µg/mL
same,MIC,[10],4 µg/mL
same,MIC50,[11],8 µg/mL
same,MIC90,[11],8 µg/mL
same,MIC50,[12],32 µg/mL
same,MIC90,[12],32 µg/mL
